# Measured values published in PubChem BioAssay (NCI).
#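 Dose response: 5 concentrations. Exposure: 48 h. Format: 96-well plates. Endpoint: linear interpolation; highest concentration if not reached. GI50: concentration for 50% inhibition of growth. TGI marks complete inhibition of growth.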
# How the values were obtained:
# Test in all cases: NCI tumour cell line growth inhibition, 48 h
# 786-0 renal = test system: 786-0 renal
# A549 NSCLC = test system: A549 NSCLC
# ACHN renal = test system: ACHN renal
# BT-549 breast = test system: BT-549 breast
# CAKI-1 renal = test system: CAKI-1 renal
# CCRF-CEM leukemia = test system: CCRF-CEM leukemia
# COLO 205 colon = test system: COLO 205 colon
# DU-145 prostate = test system: DU-145 prostate
# EKVX NSCLC = test system: EKVX NSCLC
# HCT-116 colon = test system: HCT-116 colon
# HCT-15 colon = test system: HCT-15 colon
# HL-60(TB) leukemia = test system: HL-60(TB) leukemia
# HOP-92 NSCLC = test system: HOP-92 NSCLC
# HS 578T breast = test system: HS 578T breast
# HT29 colon = test system: HT29 colon
# IGROV1 ovarian = test system: IGROV1 ovarian
# K-562 leukemia = test system: K-562 leukemia
# KM12 colon = test system: KM12 colon
# LOX IMVI melanoma = test system: LOX IMVI melanoma
# M14 melanoma = test system: M14 melanoma
# MALME-3M melanoma = test system: MALME-3M melanoma
# MDA-MB-231 breast = test system: MDA-MB-231 breast
# MDA-MB-435 = test system: MDA-MB-435
# MOLT-4 leukemia = test system: MOLT-4 leukemia
# NCI-H226 lung = test system: NCI-H226 lung
# NCI-H23 lung = test system: NCI-H23 lung
# NCI-H522 lung = test system: NCI-H522 lung
# NCI/ADR-RES ovarian = test system: NCI/ADR-RES ovarian
# OVCAR-3 ovarian = test system: OVCAR-3 ovarian
# OVCAR-4 ovarian = test system: OVCAR-4 ovarian
# OVCAR-5 ovarian = test system: OVCAR-5 ovarian
# OVCAR-8 ovarian = test system: OVCAR-8 ovarian
# PC-3 prostate = test system: PC-3 prostate
# RPMI-8226 leukemia = test system: RPMI-8226 leukemia
# RXF 393 renal = test system: RXF 393 renal
# SF-268 CNS = test system: SF-268 CNS
# SF-295 CNS = test system: SF-295 CNS
# SF-539 CNS = test system: SF-539 CNS
# SK-MEL-2 melanoma = test system: SK-MEL-2 melanoma
# SK-MEL-28 melanoma = test system: SK-MEL-28 melanoma
# SK-MEL-5 melanoma = test system: SK-MEL-5 melanoma
# SK-OV-3 ovarian = test system: SK-OV-3 ovarian
# SN12C renal = test system: SN12C renal
# SNB-19 CNS = test system: SNB-19 CNS
# SNB-75 CNS = test system: SNB-75 CNS
# SR leukemia = test system: SR leukemia
# SW-620 colon = test system: SW-620 colon
# T-47D breast = test system: T-47D breast
# TK-10 renal = test system: TK-10 renal
# U251 CNS = test system: U251 CNS
# UACC-257 melanoma = test system: UACC-257 melanoma
# UACC-62 melanoma = test system: UACC-62 melanoma
# UO-31 renal = test system: UO-31 renal
# A498 renal = test system: A498 renal
# MCF7 breast = test system: MCF7 breast
# NCI-H460 lung = test system: NCI-H460 lung
compound,measurement,setting,value
Oc1cc2ccccc2cc1-c1n[nH]c(=S)n1-c1ccc(Cl)cc1,GI50,786-0 renal,16.1 µM
same,TGI,786-0 renal,49.8 µM
same,GI50,A549 NSCLC,25.3 µM
same,TGI,A549 NSCLC,> 100 µM
same,GI50,ACHN renal,25.8 µM
same,TGI,ACHN renal,> 100 µM
same,GI50,BT-549 breast,16.2 µM
same,TGI,BT-549 breast,> 100 µM
same,GI50,CAKI-1 renal,12.5 µM
same,TGI,CAKI-1 renal,39.4 µM
same,GI50,CCRF-CEM leukemia,21.9 µM
same,TGI,CCRF-CEM leukemia,> 100 µM
same,GI50,COLO 205 colon,41.7 µM
same,TGI,COLO 205 colon,> 100 µM
same,GI50,DU-145 prostate,31.2 µM
same,TGI,DU-145 prostate,> 100 µM
same,GI50,EKVX NSCLC,28.7 µM
same,TGI,EKVX NSCLC,> 100 µM
same,GI50,HCT-116 colon,19.3 µM
same,TGI,HCT-116 colon,> 100 µM
same,GI50,HCT-15 colon,7.96 µM
same,TGI,HCT-15 colon,> 100 µM
same,GI50,HL-60(TB) leukemia,19 µM
same,TGI,HL-60(TB) leukemia,> 100 µM
same,GI50,HOP-92 NSCLC,46 µM
same,TGI,HOP-92 NSCLC,> 100 µM
same,GI50,HS 578T breast,12.4 µM
same,TGI,HS 578T breast,90.2 µM
same,GI50,HT29 colon,24.6 µM
same,TGI,HT29 colon,76.3 µM
same,GI50,IGROV1 ovarian,1.31 µM
same,TGI,IGROV1 ovarian,7.67 µM
same,GI50,K-562 leukemia,> 100 µM
same,TGI,K-562 leukemia,> 100 µM
same,GI50,KM12 colon,9.14 µM
same,TGI,KM12 colon,> 100 µM
same,GI50,LOX IMVI melanoma,11.2 µM
same,TGI,LOX IMVI melanoma,50.2 µM
same,GI50,M14 melanoma,15.1 µM
same,TGI,M14 melanoma,> 100 µM
same,GI50,MALME-3M melanoma,8.85 µM
same,TGI,MALME-3M melanoma,> 100 µM
same,GI50,MDA-MB-231 breast,8.88 µM
same,TGI,MDA-MB-231 breast,38.3 µM
same,GI50,MDA-MB-435,4.66 µM
same,TGI,MDA-MB-435,> 100 µM
same,GI50,MOLT-4 leukemia,22.7 µM
same,TGI,MOLT-4 leukemia,> 100 µM
same,GI50,NCI-H226 lung,23.7 µM
same,TGI,NCI-H226 lung,85 µM
same,GI50,NCI-H23 lung,20 µM
same,TGI,NCI-H23 lung,60.3 µM
same,GI50,NCI-H522 lung,5.65 µM
same,TGI,NCI-H522 lung,35.2 µM
same,GI50,NCI/ADR-RES ovarian,13.8 µM
same,TGI,NCI/ADR-RES ovarian,64.1 µM
same,GI50,OVCAR-3 ovarian,20.3 µM
same,TGI,OVCAR-3 ovarian,> 100 µM
same,GI50,OVCAR-4 ovarian,40.5 µM
same,TGI,OVCAR-4 ovarian,> 100 µM
same,GI50,OVCAR-5 ovarian,27.6 µM
same,TGI,OVCAR-5 ovarian,95.6 µM
same,GI50,OVCAR-8 ovarian,38.4 µM
same,TGI,OVCAR-8 ovarian,> 100 µM
same,GI50,PC-3 prostate,15.7 µM
same,TGI,PC-3 prostate,> 100 µM
same,GI50,RPMI-8226 leukemia,12.1 µM
same,TGI,RPMI-8226 leukemia,43.5 µM
same,GI50,RXF 393 renal,21.5 µM
same,TGI,RXF 393 renal,67.1 µM
same,GI50,SF-268 CNS,6.46 µM
same,TGI,SF-268 CNS,32.9 µM
same,GI50,SF-295 CNS,13.1 µM
same,TGI,SF-295 CNS,> 100 µM
same,GI50,SF-539 CNS,15.3 µM
same,TGI,SF-539 CNS,50.8 µM
same,GI50,SK-MEL-2 melanoma,12.5 µM
same,TGI,SK-MEL-2 melanoma,39.3 µM
same,GI50,SK-MEL-28 melanoma,36.4 µM
same,TGI,SK-MEL-28 melanoma,> 100 µM
same,GI50,SK-MEL-5 melanoma,14.4 µM
same,TGI,SK-MEL-5 melanoma,38.2 µM
same,GI50,SK-OV-3 ovarian,28.6 µM
same,TGI,SK-OV-3 ovarian,> 100 µM
same,GI50,SN12C renal,10.8 µM
same,TGI,SN12C renal,55.2 µM
same,GI50,SNB-19 CNS,25.4 µM
same,TGI,SNB-19 CNS,> 100 µM
same,GI50,SNB-75 CNS,28.7 µM
same,TGI,SNB-75 CNS,> 100 µM
same,GI50,SR leukemia,3.08 µM
same,TGI,SR leukemia,> 100 µM
same,GI50,SW-620 colon,23 µM
same,TGI,SW-620 colon,> 100 µM
same,GI50,T-47D breast,31.6 µM
same,TGI,T-47D breast,> 100 µM
same,GI50,TK-10 renal,18.9 µM
same,TGI,TK-10 renal,63 µM
same,GI50,U251 CNS,13 µM
same,TGI,U251 CNS,90.9 µM
same,GI50,UACC-257 melanoma,18.7 µM
same,TGI,UACC-257 melanoma,56.7 µM
same,GI50,UACC-62 melanoma,7.88 µM
same,TGI,UACC-62 melanoma,28.8 µM
same,GI50,UO-31 renal,23.2 µM
same,TGI,UO-31 renal,71.8 µM
Cc1nn(-c2ccc(Br)cc2)c(C)c1CC(=O)c1cc(O)ccc1O,GI50,786-0 renal,20.5 µM
same,TGI,786-0 renal,> 50 µM
same,GI50,A498 renal,7.18 µM
same,TGI,A498 renal,47.3 µM
same,GI50,A549 NSCLC,10.5 µM
same,TGI,A549 NSCLC,20.7 µM
same,GI50,ACHN renal,9.16 µM
same,TGI,ACHN renal,24.6 µM
same,GI50,BT-549 breast,15.8 µM
same,TGI,BT-549 breast,38.4 µM
same,GI50,CAKI-1 renal,12.2 µM
same,TGI,CAKI-1 renal,27.3 µM
same,GI50,CCRF-CEM leukemia,19 µM
same,TGI,CCRF-CEM leukemia,> 50 µM
same,GI50,COLO 205 colon,16.4 µM
same,TGI,COLO 205 colon,> 50 µM
same,GI50,DU-145 prostate,14.8 µM
same,TGI,DU-145 prostate,44.6 µM
same,GI50,EKVX NSCLC,21.3 µM
same,TGI,EKVX NSCLC,> 50 µM
same,GI50,HCT-116 colon,12.6 µM
same,TGI,HCT-116 colon,> 50 µM
same,GI50,HCT-15 colon,4.61 µM
same,TGI,HCT-15 colon,15.8 µM
same,GI50,HL-60(TB) leukemia,11.9 µM
same,TGI,HL-60(TB) leukemia,> 50 µM
same,GI50,HS 578T breast,22.7 µM
same,TGI,HS 578T breast,> 50 µM
same,GI50,HT29 colon,13.2 µM
same,TGI,HT29 colon,36.7 µM
same,GI50,IGROV1 ovarian,17.2 µM
same,TGI,IGROV1 ovarian,> 50 µM
same,GI50,K-562 leukemia,3.02 µM
same,TGI,K-562 leukemia,29.5 µM
same,GI50,KM12 colon,5.91 µM
same,TGI,KM12 colon,> 50 µM
same,GI50,LOX IMVI melanoma,4.13 µM
same,TGI,LOX IMVI melanoma,13.9 µM
same,GI50,M14 melanoma,29.6 µM
same,TGI,M14 melanoma,> 50 µM
same,GI50,MCF7 breast,6.27 µM
same,TGI,MCF7 breast,18.8 µM
same,GI50,MDA-MB-231 breast,5.35 µM
same,TGI,MDA-MB-231 breast,15 µM
same,GI50,MDA-MB-435,6.92 µM
same,TGI,MDA-MB-435,> 50 µM
same,GI50,MOLT-4 leukemia,3.26 µM
same,TGI,MOLT-4 leukemia,> 50 µM
same,GI50,NCI-H226 lung,7.69 µM
same,TGI,NCI-H226 lung,19.3 µM
same,GI50,NCI-H23 lung,10.9 µM
same,TGI,NCI-H23 lung,35.7 µM
same,GI50,NCI-H460 lung,8.34 µM
same,TGI,NCI-H460 lung,19.3 µM
same,GI50,NCI-H522 lung,16 µM
same,TGI,NCI-H522 lung,> 50 µM
same,GI50,NCI/ADR-RES ovarian,11.2 µM
same,TGI,NCI/ADR-RES ovarian,45.6 µM
same,GI50,OVCAR-3 ovarian,12.9 µM
same,TGI,OVCAR-3 ovarian,38.8 µM
same,GI50,OVCAR-4 ovarian,15.9 µM
same,TGI,OVCAR-4 ovarian,> 50 µM
same,GI50,OVCAR-5 ovarian,16.2 µM
same,TGI,OVCAR-5 ovarian,> 50 µM
same,GI50,OVCAR-8 ovarian,8.09 µM
same,TGI,OVCAR-8 ovarian,23.2 µM
same,GI50,PC-3 prostate,9.97 µM
same,TGI,PC-3 prostate,> 50 µM
same,GI50,RPMI-8226 leukemia,8.21 µM
same,TGI,RPMI-8226 leukemia,> 50 µM
same,GI50,RXF 393 renal,9.01 µM
same,TGI,RXF 393 renal,27.8 µM
same,GI50,SF-268 CNS,5.6 µM
same,TGI,SF-268 CNS,17.6 µM
same,GI50,SF-295 CNS,14.9 µM
same,TGI,SF-295 CNS,30.3 µM
same,GI50,SF-539 CNS,11.5 µM
same,TGI,SF-539 CNS,28 µM
same,GI50,SK-MEL-2 melanoma,23 µM
same,TGI,SK-MEL-2 melanoma,> 50 µM
same,GI50,SK-MEL-28 melanoma,12.6 µM
same,TGI,SK-MEL-28 melanoma,47.5 µM
same,GI50,SK-MEL-5 melanoma,6.84 µM
same,TGI,SK-MEL-5 melanoma,20.3 µM
same,GI50,SN12C renal,6.79 µM
same,TGI,SN12C renal,16.6 µM
same,GI50,SNB-19 CNS,15 µM
same,TGI,SNB-19 CNS,> 50 µM
same,GI50,SNB-75 CNS,10.8 µM
same,TGI,SNB-75 CNS,31.1 µM
same,GI50,SR leukemia,0.911 µM
same,TGI,SR leukemia,> 50 µM
same,GI50,SW-620 colon,14.4 µM
same,TGI,SW-620 colon,> 50 µM
same,GI50,TK-10 renal,15.5 µM
same,TGI,TK-10 renal,> 50 µM
same,GI50,U251 CNS,10.1 µM
same,TGI,U251 CNS,21.8 µM
same,GI50,UACC-257 melanoma,11.2 µM
same,TGI,UACC-257 melanoma,26.6 µM
same,GI50,UACC-62 melanoma,4.24 µM
same,TGI,UACC-62 melanoma,11.4 µM
same,GI50,UO-31 renal,15.9 µM
same,TGI,UO-31 renal,> 50 µM
